This note sets out measurements from ChEMBL document CHEMBL5465560, “Selectivity Literature for EUbOPEN Chemogenomic Library” (2024).

The target in assay [1] is Ribosomal protein S6 kinase alpha-4 (Homo sapiens) (UniProt O75676). As to conditions: at 10 µM.
Assay [2] concerns the target Serine/threonine-protein kinase SIK1 (Homo sapiens) (UniProt P57059). In words: Selectivity interaction (KinomeScan (DiscoverX)) EUB0000655a SIK1. To be noted: at 10 µM.
In assay [3] the target is Mitogen-activated protein kinase 1 (Homo sapiens, UniProt P28482). In words: Selectivity interaction (KinomeScan (DiscoverX)) EUB0000695a MAPK1. As to conditions: at 100 nM.
Sequence of Mitogen-activated protein kinase 1 (P28482 whole entry): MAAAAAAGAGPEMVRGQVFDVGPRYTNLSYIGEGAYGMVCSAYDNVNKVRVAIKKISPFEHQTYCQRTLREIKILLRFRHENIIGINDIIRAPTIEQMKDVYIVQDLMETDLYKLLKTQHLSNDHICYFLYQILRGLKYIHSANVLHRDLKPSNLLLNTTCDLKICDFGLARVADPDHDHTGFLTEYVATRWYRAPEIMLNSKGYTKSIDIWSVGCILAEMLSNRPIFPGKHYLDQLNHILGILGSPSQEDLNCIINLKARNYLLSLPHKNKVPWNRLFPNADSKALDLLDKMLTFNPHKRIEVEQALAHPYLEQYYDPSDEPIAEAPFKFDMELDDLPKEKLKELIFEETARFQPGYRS
Assay [4] deals with Neuromedin-K receptor (Homo sapiens) (UniProt P29371). Briefly: Selectivity interaction (Eurofins CEREP Diversity Profile (receptors and ion channels)) EUB0000279b TACR3. To be noted: at 10 µM.
Sequence of Neuromedin-K receptor (Homo sapiens) (P29371 whole entry): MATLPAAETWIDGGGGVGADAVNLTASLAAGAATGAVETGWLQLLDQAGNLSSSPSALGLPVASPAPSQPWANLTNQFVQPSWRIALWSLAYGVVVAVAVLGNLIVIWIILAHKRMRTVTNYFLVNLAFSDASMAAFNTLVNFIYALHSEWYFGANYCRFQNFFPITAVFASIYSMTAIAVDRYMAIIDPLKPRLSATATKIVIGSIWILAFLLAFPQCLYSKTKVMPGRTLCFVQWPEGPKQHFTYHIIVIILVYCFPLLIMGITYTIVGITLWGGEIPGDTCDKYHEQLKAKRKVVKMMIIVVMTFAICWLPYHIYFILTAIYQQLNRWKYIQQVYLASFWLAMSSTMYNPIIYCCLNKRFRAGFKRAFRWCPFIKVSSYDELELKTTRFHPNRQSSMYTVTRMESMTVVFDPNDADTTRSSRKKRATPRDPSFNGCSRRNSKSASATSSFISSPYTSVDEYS
In assay [5] the target is Wee1-like protein kinase (Homo sapiens) (UniProt P30291). Briefly: Selectivity interaction (LanthaScreen Eu Kinase Binding Assay) EUB0001632a WEE1. To be noted: at 10 µM. (In TR-FRET formats the signal depends on donor and acceptor labels being close together.)
Sequence of Wee1-like protein kinase (Homo sapiens) (P30291 whole entry, looked up): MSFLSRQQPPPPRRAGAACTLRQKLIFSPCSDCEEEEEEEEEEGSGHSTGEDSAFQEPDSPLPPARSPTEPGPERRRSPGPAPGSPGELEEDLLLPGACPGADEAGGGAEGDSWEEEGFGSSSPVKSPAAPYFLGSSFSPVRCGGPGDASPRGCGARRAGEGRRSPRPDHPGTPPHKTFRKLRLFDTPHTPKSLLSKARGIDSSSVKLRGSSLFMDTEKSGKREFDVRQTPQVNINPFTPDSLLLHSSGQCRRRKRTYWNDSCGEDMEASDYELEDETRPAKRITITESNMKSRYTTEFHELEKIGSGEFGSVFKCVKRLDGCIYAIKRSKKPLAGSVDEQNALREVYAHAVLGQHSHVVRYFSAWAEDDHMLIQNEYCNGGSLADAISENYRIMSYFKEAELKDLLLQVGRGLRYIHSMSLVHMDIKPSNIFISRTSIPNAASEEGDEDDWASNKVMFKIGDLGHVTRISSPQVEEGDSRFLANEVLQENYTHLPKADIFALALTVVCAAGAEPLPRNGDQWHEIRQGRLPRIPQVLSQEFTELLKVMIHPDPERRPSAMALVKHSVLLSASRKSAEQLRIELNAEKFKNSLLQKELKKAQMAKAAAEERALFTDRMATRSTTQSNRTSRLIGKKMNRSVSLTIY
Assay [6] has as its target Protein-tyrosine kinase 2-beta (Homo sapiens) (UniProt Q14289). In words: Selectivity interaction (Kinase panel (Invitrogen)) EUB0000639a PTK2B. As to conditions: at 200 nM.
In assay [7] the target is Serine/threonine-protein kinase PLK3 (Homo sapiens, UniProt Q9H4B4). Briefly: Selectivity interaction (Kinase panel (Invitrogen)) EUB0000639a PLK3. As to conditions: at 200 nM.
Sequence of Serine/threonine-protein kinase PLK3 (Q9H4B4 whole entry, looked up): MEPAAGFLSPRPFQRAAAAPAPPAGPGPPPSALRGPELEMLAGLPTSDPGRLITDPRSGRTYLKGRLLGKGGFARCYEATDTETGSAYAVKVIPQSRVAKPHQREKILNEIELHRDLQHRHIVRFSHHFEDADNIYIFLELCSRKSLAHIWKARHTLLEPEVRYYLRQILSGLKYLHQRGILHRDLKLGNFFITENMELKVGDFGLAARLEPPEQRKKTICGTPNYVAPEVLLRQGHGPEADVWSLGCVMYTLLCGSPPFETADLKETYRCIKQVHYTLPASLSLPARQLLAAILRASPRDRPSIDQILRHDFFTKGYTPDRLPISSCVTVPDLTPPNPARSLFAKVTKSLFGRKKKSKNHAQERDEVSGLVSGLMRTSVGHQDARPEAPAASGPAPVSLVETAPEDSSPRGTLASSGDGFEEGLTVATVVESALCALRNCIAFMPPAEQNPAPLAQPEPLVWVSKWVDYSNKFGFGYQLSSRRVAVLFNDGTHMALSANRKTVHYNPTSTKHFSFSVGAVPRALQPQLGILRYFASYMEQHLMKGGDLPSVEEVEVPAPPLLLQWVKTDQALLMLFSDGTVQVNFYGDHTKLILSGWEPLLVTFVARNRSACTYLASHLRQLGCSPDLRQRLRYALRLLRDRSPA
Assay [8] has as its target T1, Inhibitor of nuclear factor kappa-B kinase subunit epsilon (Homo sapiens) (UniProt Q14164).
T1 sequence (whole entry): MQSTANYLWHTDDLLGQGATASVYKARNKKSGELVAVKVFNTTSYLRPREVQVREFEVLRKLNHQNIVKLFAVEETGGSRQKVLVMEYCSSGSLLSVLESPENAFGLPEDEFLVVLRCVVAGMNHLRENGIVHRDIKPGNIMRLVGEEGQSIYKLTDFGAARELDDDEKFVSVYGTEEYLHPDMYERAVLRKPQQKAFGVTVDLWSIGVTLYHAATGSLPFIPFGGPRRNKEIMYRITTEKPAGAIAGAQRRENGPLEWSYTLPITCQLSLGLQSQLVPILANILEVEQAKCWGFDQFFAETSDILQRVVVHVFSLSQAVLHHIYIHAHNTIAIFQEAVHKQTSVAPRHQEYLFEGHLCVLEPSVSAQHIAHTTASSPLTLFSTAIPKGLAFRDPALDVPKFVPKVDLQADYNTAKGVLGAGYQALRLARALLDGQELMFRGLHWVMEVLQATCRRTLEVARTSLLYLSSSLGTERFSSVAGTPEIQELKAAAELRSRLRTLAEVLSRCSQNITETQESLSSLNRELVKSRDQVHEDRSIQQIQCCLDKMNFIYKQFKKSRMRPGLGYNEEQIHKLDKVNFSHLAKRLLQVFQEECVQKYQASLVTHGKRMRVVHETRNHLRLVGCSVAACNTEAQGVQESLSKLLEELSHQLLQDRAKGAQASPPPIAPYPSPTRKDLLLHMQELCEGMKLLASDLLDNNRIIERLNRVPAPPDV
Briefly: Selectivity interaction (ActivX KiNativ screen (kinase selectivity in THP-1 cell lysates)) EUB0000639a IKBKE. Format: subcellular. To be noted: lysate, at 0.01 µM.

For assay [9], the target named is T2, MAP/microtubule affinity-regulating kinase 4 (Homo sapiens) (UniProt Q96L34).
T2 sequence (whole entry): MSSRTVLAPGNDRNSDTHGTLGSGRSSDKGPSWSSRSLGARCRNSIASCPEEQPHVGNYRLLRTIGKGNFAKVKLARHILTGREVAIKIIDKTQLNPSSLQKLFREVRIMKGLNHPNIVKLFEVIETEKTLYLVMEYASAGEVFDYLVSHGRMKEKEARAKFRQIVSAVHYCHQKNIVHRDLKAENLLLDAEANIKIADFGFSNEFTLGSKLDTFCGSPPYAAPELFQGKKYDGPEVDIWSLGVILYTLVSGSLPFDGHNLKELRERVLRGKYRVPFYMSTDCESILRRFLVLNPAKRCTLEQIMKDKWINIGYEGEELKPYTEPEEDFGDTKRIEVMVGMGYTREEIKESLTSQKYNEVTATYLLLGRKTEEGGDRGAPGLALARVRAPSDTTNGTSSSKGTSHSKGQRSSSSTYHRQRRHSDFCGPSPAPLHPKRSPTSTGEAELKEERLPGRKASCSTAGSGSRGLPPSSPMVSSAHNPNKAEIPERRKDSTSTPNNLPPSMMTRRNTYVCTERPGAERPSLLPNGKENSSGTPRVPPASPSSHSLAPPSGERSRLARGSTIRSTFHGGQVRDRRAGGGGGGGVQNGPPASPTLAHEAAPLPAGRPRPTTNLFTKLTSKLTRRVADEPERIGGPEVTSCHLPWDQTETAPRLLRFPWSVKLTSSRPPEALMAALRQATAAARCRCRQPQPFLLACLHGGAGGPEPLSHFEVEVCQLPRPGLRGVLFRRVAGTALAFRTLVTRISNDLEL
Briefly: Selectivity interaction (ActivX KiNativ screen (kinase selectivity in THP-1 cell lysates)) EUB0000639a MARK4. Format: subcellular. To be noted: lysate, at 0.04 µM.

The target of another assay is Adenosine receptor A3 (Homo sapiens, UniProt P0DMS8). In words: Selectivity interaction (Adenosine 3 receptor binding assay, human recombinant ) EUB0000877a ADORA3.
Sequence of Adenosine receptor A3 (P0DMS8 whole entry): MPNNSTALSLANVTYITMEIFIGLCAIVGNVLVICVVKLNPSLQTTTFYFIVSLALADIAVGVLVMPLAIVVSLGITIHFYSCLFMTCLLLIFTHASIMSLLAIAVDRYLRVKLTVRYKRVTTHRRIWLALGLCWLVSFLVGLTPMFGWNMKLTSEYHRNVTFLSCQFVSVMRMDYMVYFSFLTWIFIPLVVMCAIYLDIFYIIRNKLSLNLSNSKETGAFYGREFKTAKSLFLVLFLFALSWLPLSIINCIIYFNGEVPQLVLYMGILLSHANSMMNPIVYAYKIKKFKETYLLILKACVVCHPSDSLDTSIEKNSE
For assay [10], the target named is Homeodomain-interacting protein kinase 3 (Homo sapiens, UniProt Q9H422). In words: Selectivity interaction (KinomeScan (DiscoverX)) EUB0000595a HIPK3. As to conditions: at 10 µM.
For assay [11], the target named is Casein kinase I isoform delta (Homo sapiens, UniProt P48730). In words: Selectivity interaction (KinomeScan (DiscoverX)) EUB0000618a CSNK1D. As to conditions: at 10 µM.

Sequence of Serine/threonine-protein kinase SIK1 (Homo sapiens) (P57059 whole entry): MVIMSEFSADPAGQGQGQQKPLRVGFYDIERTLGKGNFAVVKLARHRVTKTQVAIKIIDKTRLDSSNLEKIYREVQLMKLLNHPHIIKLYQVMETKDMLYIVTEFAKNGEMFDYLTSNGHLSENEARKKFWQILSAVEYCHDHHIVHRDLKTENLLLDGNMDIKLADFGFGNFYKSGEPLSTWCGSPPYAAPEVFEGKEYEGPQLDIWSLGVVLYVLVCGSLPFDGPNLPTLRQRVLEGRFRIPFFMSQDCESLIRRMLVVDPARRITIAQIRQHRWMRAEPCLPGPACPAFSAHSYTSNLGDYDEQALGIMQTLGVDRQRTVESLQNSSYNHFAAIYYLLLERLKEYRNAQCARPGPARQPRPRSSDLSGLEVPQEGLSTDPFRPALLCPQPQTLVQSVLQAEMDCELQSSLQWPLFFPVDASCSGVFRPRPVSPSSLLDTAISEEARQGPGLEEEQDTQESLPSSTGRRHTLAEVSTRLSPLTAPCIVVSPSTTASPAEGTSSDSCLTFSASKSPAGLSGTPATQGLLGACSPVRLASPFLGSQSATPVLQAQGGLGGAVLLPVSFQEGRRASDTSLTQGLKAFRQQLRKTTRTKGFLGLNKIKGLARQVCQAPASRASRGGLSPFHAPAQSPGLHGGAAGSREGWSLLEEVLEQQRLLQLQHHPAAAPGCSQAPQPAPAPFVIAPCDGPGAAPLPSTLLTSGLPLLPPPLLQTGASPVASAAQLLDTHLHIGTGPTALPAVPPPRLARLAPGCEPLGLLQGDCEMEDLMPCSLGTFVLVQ
Sequence of Ribosomal protein S6 kinase alpha-4 (Homo sapiens) (O75676 whole entry, looked up): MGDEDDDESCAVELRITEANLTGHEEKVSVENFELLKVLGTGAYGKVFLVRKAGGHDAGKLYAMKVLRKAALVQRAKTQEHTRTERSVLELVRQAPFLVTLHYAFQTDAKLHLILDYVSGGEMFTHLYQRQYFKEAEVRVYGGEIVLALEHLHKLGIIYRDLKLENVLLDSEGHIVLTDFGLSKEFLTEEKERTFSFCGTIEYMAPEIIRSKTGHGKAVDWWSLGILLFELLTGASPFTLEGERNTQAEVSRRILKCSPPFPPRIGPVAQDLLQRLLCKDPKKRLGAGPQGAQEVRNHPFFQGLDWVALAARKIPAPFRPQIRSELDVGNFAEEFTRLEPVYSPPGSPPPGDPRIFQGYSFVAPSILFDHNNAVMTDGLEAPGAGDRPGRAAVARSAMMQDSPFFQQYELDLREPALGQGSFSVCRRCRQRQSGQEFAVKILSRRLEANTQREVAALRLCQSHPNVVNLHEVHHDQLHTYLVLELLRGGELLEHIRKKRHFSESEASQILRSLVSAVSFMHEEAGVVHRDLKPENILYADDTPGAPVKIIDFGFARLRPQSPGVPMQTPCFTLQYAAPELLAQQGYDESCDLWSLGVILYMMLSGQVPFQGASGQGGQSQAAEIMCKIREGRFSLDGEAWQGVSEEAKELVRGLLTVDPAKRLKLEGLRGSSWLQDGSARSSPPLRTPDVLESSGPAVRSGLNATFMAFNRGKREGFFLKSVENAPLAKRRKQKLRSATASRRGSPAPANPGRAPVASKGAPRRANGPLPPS
Sequence of Protein-tyrosine kinase 2-beta (Homo sapiens) (Q14289 whole entry, looked up): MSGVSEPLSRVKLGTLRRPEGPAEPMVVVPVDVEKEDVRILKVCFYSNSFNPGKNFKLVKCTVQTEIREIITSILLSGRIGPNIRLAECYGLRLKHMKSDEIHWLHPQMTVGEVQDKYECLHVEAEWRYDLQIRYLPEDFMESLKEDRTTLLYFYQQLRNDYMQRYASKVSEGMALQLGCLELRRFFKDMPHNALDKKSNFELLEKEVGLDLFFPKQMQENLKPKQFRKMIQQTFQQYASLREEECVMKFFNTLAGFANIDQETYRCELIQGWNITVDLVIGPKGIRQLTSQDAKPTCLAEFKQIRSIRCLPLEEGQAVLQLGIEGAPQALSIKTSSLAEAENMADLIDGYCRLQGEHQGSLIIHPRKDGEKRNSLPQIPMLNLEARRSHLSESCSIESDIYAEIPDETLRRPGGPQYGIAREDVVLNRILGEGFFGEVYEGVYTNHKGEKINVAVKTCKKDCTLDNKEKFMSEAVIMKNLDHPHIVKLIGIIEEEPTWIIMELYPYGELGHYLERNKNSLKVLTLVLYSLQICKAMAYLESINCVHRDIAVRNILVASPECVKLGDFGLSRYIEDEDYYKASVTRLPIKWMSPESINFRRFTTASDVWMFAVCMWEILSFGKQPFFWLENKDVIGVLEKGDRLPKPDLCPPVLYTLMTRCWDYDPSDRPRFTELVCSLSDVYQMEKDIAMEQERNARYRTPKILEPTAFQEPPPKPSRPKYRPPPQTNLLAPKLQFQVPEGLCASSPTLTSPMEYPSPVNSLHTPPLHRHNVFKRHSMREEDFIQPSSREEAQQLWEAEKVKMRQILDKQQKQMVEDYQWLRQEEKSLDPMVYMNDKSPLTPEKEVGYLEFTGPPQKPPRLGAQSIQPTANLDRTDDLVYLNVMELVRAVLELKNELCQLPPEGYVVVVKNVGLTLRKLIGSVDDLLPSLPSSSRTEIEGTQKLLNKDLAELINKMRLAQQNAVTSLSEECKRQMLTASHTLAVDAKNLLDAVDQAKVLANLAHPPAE

In turn, `CCN(CC)CCCCNc1ncc2cc(-c3cc(OC)cc(OC)c3)c(NC(=O)NC(C)(C)C)nc2n1` yielded a % of control in assay [1] of 100%. `CN(C)CCOc1ccc(-c2nc(-c3ccncc3)c(-c3ccc4c(c3)CC/C4=N\O)[nH]2)cc1` displayed a % of control in assay [2] of 100%. The compound `Cc1cc(F)c(C(=O)Nc2cccc(-c3nncn3C(C)C)n2)cc1-n1cnc(C2CC2)c1` gave a % of control in assay [3] of 98%. With `CC(=O)c1cc(-c2ccccc2OCC2CC2)c2ncccn12`, in assay [4], the % of control came out at 85%. `Cn1cc(-n2cnc3c(NCc4nc5cc(Cl)c(Cl)cc5[nH]4)nc(N4CCOCC4)nc32)cn1`: the % of inhibition in assay [5] is -20.9%. For the compound `CC[C@@H]1[C@H](F)C(=O)N[C@@H]1COc1nccc2cc(C(N)=O)c(OC)cc12` [ZIMLOVISERTIB], the % of inhibition in [6] was -0.0574%; in [7], 5.09%; in assay [8] it was -51.9%; in assay [9], 15.9%. By IC50 is commonly meant the concentration that gives 50% inhibition. On to `CCC(=O)N1CC[C@H](Nc2ncnc3c2CN(c2cnc(OC)c(C(F)(F)F)c2)CC3)C1` [LENIOLISIB], for which, at Adenosine receptor A3, the IC50 was over 30 µM. The compound `COCC(=O)NC/C=C/c1ccc2ncnc(Nc3ccc(Oc4ccc(C)nc4)c(C)c3)c2c1` [CP-724714] had a % of control in assay [10] of 100%. For the compound `O[C@H]1CC[C@H](Nc2ncc3nc(Nc4c(F)cc(F)cc4F)n([C@H]4CCOC4)c3n2)CC1`, the % of control in assay [11] was determined as 83%.
